Assay results published in patent US20070054848A1, “Composition and method for nerve regeneration” (priority 2003, published 2007).
Entries after “also recorded” stand apart in the source; their conditions may differ. Where no end group is shown, it is not given here. The star is where a group is joined. TAT = PTD (protein transduction domain) peptide fused to the peptide; Myristoyl = CCCCCCCCCCCCCC(=O)*

What was measured:
[1] = test system: cerebellar granule neurons from P7 rats; experiment: Neurite outgrowth assay, cerebellar neurons; format: cell-based, rat; settings: P7 rat cerebellar granule neurons
[2] = test system: cerebellar granule neurons; experiment: Fluorescence Ca2+ imaging (Oregon-green 488BAPTA-1 and Fura Red); format: cell-based; settings: p7 rat cerebellar granule neurons
p75 = molecular target: T1, p75 (Mus musculus, UniProt Q9Z0W1); experiment: Co-precipitation of p75 with recombinant GST-Pep5; format: binding; settings: lysates prepared from post-natal cerebellum
T1 construct: was incubated with lysates prepared from post-natal cerebellum that abundantly express p75; from tissue; host or cells: post-natal cerebellum
T1 sequence (Q9Z0W1 32-427): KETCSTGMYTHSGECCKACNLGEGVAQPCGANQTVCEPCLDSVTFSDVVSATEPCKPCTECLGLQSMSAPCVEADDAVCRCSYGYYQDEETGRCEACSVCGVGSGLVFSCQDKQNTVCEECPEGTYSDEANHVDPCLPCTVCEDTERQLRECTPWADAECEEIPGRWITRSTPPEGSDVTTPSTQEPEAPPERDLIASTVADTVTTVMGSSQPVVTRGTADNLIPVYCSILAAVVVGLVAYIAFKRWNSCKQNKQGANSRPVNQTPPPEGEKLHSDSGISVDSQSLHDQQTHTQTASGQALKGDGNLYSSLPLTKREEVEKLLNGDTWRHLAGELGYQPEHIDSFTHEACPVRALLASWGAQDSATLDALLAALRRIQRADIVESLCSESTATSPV
Excerpt: As all the myelin-derived inhibitors of axonal regeneration identified so far act on neurons through p75, intervening with p75 signaling after injury to the central nervous system may alleviate myelin-dependent inhibition of axonal regeneration. […] The specific peptide ligand to the p75 HD was previously obtained from a combinatorial library (Ilag, L. L. et al., Biochem Biophys Res Commun. 255, 104-109 (1999)). This ligand is a 15 amino acid residue peptide (Pep5; […] (SEQ ID NO: 2)) and the binding site was mapped by nuclear magnetic resonance spectroscopy onto a hydrophobic patch framed by helices 5 and 6. […] The present inventors first confirmed whether p75 associates with Pep5. Glutathione S-transferase-fusion protein containing Pep5 (GST-Pep5) was incubated with lysates prepared from post-natal cerebellum that abundantly express p75. […] Therefore, Pep5 has a potential to disrupt the signal mediated by p75 in vitro. As the peptide ligand must gain entry into the cell if it is to act directly on the p75 HD in vivo, the present inventors generated Pep5 fused with the amino-terminal 11 amino acid protein transduction domain (PTD domain) from the human immunodeficiency virus protein, TAT (TAT-Pep5) (Schwarze, S. R., Ho, A., Vocero-Akbani, A. & Dowdy, S. F., Science 285, 1569-1572 (1999)). […] Thus, Pep5 may be used as an inhibitor of Rho GDI association with p75.

RhoA [3] = experiment: Affinity-precipitation of GTP-RhoA in cerebellar neurons; format: cell-based, mice; settings: post-natal cerebellar neurons
Protocol: 293 cells were transfected with pcDNA3 vectors containing wild type RhoA whose NH2-terminus is tagged with HA (Yamashita, T. et al., Neuron. 24:585-593, 1999) and/or full-length human p75 by lipofection using Lipofectamine 2000 (Gibco BRL). Cerebellar neurons from P9 mice were isolated as described previously (Cai et. al, Neuron, 22:89-101, 1999). Cells were lysed in 50 mM Tris (pH 7.5), 1% Triton X-100, 0.5% sodium deoxycholate, 0.1% SDS, 500 mM NaCl, 10 mM MgCl2, with leupeptin and aprotinin, each at 10 μg/ml. Cell lysates were clarified by centrifugation at 13,000×g at 4° C. for 10 min, and the supernatants were incubated with the 20 μg of GST-Rho binding domain of Rhotekin beads (Upstate Biotech.) at 4° C. for 45 min. The beads were washed 4 times with washing buffer (50 mM Tris (pH 7.5) containing 1% Triton X-100, 150 mM NaCl, 10 mM MgCl2, 10 μg/ml each of leupeptin and aprotinin). Bound Rho proteins were detected by Western blotting using a monoclonal antibody against RhoA (Santa Cruz Biotechnology).
Amino-terminally FLAG-tagged human p75 or the deletion mutants of p75 ICD were cloned into pcDNA3.1 expression plasmid, and were transfected with 293T cells. […] Bound Rho proteins were detected by Western blotting using a monoclonal antibody against RhoA (Santa Cruz Biotechnology).

[4] = molecular target: T2, interaction of p75 with Rho GDI (Homo sapiens, UniProt P08138); experiment: Co-immunoprecipitation of p75 with Rho GDI or RhoA in transfected N1E-115 cells; format: cell-based; settings: N1E-115 cells transfected with FLAG-tagged p75; Nogo peptide 4 μM, MAG-Fc 25 μg/ml, NGF 100 ng/ml
T2 construct: expressed in transfected cells; host or cells: N1E-115 cells
T2 sequence (P08138 29-427): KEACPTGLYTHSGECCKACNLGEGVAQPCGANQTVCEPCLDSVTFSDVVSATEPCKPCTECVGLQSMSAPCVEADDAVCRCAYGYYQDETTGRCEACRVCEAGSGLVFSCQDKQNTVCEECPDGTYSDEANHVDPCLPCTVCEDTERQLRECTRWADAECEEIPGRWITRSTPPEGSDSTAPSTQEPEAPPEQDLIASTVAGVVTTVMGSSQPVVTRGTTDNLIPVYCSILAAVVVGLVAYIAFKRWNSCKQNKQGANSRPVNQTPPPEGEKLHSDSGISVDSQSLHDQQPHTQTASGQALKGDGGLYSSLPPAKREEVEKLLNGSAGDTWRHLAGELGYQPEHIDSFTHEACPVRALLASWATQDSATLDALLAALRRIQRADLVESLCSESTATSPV

RhoA [5] = experiment: Affinity-precipitation of GTP-RhoA; format: cell-based; settings: P7 rat cerebellar neurons
Protocol: Cells were lysed in 50 mM Tris, pH 7.5, 1% Triton X-100, 0.5% sodium deoxycholate, 0.1% SDS, 500 mM NaCl, 10 mM MgCl2, with leupeptin and aprotinin, each at 10 μg/ml (Tang S. et al., J. Cell Biol., 138, 1355-1366 (1997)). Cell lysates were clarified by centrifugation at 13,000 g at 4° C. for 10 min, and the supernatants were incubated with the 20 μg of GST-Rho binding domain of Rhotekin beads (Upstate Biotechnology) at 4° C. for 45 min. The beads were washed 4 times with washing buffer (50 mM Tris, pH 7.5 containing 1% Triton X-100, 150 mM NaCl, 10 mM MgCl2, 10 μg/ml leupeptin, and 10 μg/ml aprotinin). Bound Rho proteins were detected by Western blotting using a monoclonal antibody against RhoA (Santa Cruz Biotechnology).
To address this, we measured RhoA activity in the neurons. Using the RhoA-binding domain of the effector protein Rhotekin (Ren, X. D. et al., EMBO J., 18, 578-585 (1999)), the GTP-bound form of RhoA can be affinity-precipitated. […] The PKC inhibitor had no effect on the Rho activity induced by MAG-Fc or the Nogo peptide. Thus, promotion of neurite outgrowth of the cerebellar neurons by inhibition of PKC was not mediated by the block of RhoA activation, showing that PKC is not upstream of RhoA.

[6] = test system: E12 chick dorsal root ganglia explants; experiment: Growth cone collapse assay; format: cell-based; settings: chick E12 DRG explants; myelin 0.1 to 10 ng/μl
Protocol: Explants of E12 chick dorsal root ganglia were incubated for 24 hours on plastic slides precoated with 100 μg/ml poly-L-lysine, and were treated for 30 minutes with soluble CNS myelin extracts (Sigma) at the indicated concentrations (MAG-Fc (25 μg/ml) or the Nogo peptide (4 μM)). Explants were fixed in 4% (wt/vol) paraformaldehyde, and were stained with fluorescence-labeled phalloidin (Sigma).

DRG neurons from P1 rats = experiment: Neurite outgrowth assay, dissociated DRG neurons; format: cell-based, rat
nerve regeneration = experiment: Similar experiments with modified amino acid agents (Example 2-8)
Protocol: Similar experiments were carried out using Pep5 in which alanine was added to the C terminus of the sequence (SEQ ID NO: 2), antibodies for the extracellular domain of p75, and p75 in which alanine was replaced with valine at amino acid 423 in positions 273-427 of SEQ ID NO: 4.

cerebellar neurons = experiment: Neurite outgrowth assay, post-natal cerebellar neurons; format: cell-based, mice; settings: post-natal cerebellar neurons
spinal cord [7] = experiment: Similar spinal cord experiments in mice (Example 2-7); format: in vivo
spinal cord [8] = experiment: Spinal cord injury in rats (dorsal half dissected), BBB score; format: in vivo, rat; settings: 200 g male Wistar rats; continuous osmotic pump to the injured site
DRG neurons = experiment: Neurite outgrowth assay, DRG neurons; format: cell-based, mice; settings: added exogenously at 100 nM
[9] = molecular target: T3, interaction of p75 with Rho GDI (Mus musculus, UniProt Q9Z0W1); experiment: Co-immunoprecipitation of endogenous p75 and Rho GDI in cerebellar neurons; format: cell-based, mice; settings: dissociated cerebellar neurons
T3 construct: endogenous in cells; host or cells: primary cerebellar neurons from P9 mice
T3 sequence (Q9Z0W1 32-427): T1 sequence (Q9Z0W1 32-427)

[10] = molecular target: catalytic domain of Rho-kinase (GST-CAT) (Bos taurus, UniProt Q28021); experiment: In vitro binding assay of p21 and Rho-kinase (GST-CAT); settings: GST-CAT; aa 6-553
catalytic domain of Rho-kinase (GST-CAT), sequence (Q28021 6-553 limits assumed): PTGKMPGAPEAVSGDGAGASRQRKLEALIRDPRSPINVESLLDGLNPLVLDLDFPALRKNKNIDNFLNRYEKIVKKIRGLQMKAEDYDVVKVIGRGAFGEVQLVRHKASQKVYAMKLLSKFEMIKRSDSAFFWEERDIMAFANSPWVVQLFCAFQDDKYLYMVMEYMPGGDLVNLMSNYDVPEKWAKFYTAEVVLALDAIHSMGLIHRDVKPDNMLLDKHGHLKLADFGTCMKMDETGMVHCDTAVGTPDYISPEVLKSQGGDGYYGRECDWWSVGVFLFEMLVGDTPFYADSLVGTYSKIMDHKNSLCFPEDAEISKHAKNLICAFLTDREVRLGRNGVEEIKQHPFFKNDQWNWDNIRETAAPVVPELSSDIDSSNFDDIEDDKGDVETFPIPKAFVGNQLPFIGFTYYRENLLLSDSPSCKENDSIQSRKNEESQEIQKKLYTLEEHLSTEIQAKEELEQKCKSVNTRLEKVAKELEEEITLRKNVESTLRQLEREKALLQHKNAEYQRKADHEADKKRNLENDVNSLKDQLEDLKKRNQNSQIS

spinal cord [11] = experiment: Spinal cord injury in rats, p21 / TAT-bound p21, BBB score; format: in vivo, rat; settings: 200 g male Wistar rats; osmotic pump for 2 weeks; observed from day 2 for 6 weeks

## COc1ccc2c(c1)CC[C@@H]1[C@@H]2CC[C@]2(C)[C@@H](NCCCCCCN3C(=O)C=CC3=O)CC[C@@H]12 [U73122]
[1]
  modulation of neurite outgrowth inhibition by MAG-Fc or the Nogo peptide: neither PTX nor U73122 modulated
[2]
  effect on Ca2+ elevation induced by MAG: blocked

## GST-Pep5: Glutathione S-transferase-fusion protein containing Pep5
p75
  co-precipitation of p75: revealed the presence of a protein corresponding to p75

## NGF: Nerve growth factor [reference compound]
RhoA [3]; wild type, MAG-Fc 25 μg/ml, Nogo peptide 4 μM
  RhoA activity: rapidly inhibits RhoA activity
[4]
  interaction of p75 with Rho GDI as well as RhoA: abolished the interaction

## PKC inhibitor: cell permeable PKC inhibitor 20-28 (Calbiochem), specific membrane permeable PKC inhibitor peptide (Myristoyl-FARKGALRQ; not fully specified (C-terminus); UniProt P17252 20-28, looked up, fragment)
[1]; MAG-Fc 25 μg/ml, Nogo peptide 4 μM
  neurite outgrowth (substance alone): no effect on the growth
RhoA [5]
  effect on Rho activity induced by MAG-Fc or the Nogo peptide: no effect
[6]
  effect on growth cone collapse mediated by myelin: completely reversed
DRG neurons from P1 rats
  modulation of MAG-Fc effect on neurite outgrowth: no modulating effect

## Pep5 in which alanine was added to the C terminus: Pep5 in which alanine was added to the C terminus of the sequence (SEQ ID NO: 2) (CFFRGGFFNHNPRYC)
Nerve regeneration
  nerve regeneration: nerve regeneration was similarly observed

## TAT-CFFRGGFFNHNPRYC ({TAT}-CFFRGGFFNHNPRYC; cysteine pairing not given here; also: TAT (PTD) sequence not fixed) [TAT-Pep5, Pep5 fused with the amino-terminal 11 amino acid protein transduction domain from HIV TAT]
Cerebellar neurons
  inhibitory effect of MAG (25 μg/ml) and the Nogo peptide (4 μM) on neurite outgrowth: efficiently silenced the inhibitory effect
RhoA [3]; TAT-Pep5 (1 μM)
  activation of RhoA induced by MAG-Fc or the Nogo peptide: inhibited the activation of RhoA; also recorded: completely abolishes these effects
Spinal cord [7]
  nerve regeneration: nerve regeneration was similarly observed
Spinal cord [8]
  nerve regeneration after spinal cord injury: nerve regeneration was significantly observed
DRG neurons
  responsiveness of DRG neurons to MAG (25 μg/ml) and the Nogo peptide (4 μM), neurite outgrowth: abolished their responsiveness
[9]
  interaction of p75 with Rho GDI induced by MAG-Fc: significantly inhibited; also recorded: diminished

## p21: Recombinant full-length p21 (1-164 in SEQ ID NO: 23), cyclin-dependent protein kinase inhibitor
[10]
  in vitro interaction with Rho-kinase: bound to each other in vitro
Spinal cord [11]
  functional recovery after spinal cord injury (BBB score): an effect was not sufficiently observed
